# Measured values from PubChem BioAssay (NCI).
#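 Method: 48-hour compound exposure of cells in 96-well plates, five concentrations, linear interpolation of endpoints. The concentration for full growth arrest is given as TGI.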
# How the values were obtained:
# Experiment in all cases: NCI anticancer screen, dose series, 48 h
# SNB-75 CNS = tested on: SNB-75 CNS
# K-562 leukemia = tested on: K-562 leukemia
# MOLT-4 leukemia = tested on: MOLT-4 leukemia
# RXF 393 renal = tested on: RXF 393 renal
# SK-MEL-28 melanoma = tested on: SK-MEL-28 melanoma
# M14 melanoma = tested on: M14 melanoma
# UACC-257 melanoma = tested on: UACC-257 melanoma
# SR leukemia = tested on: SR leukemia
# HCT-116 colon = tested on: HCT-116 colon
# MDA-MB-435 = tested on: MDA-MB-435
SMILES,TGI (SNB-75 CNS) [µM],TGI (K-562 leukemia) [µM],TGI (MOLT-4 leukemia) [µM],TGI (RXF 393 renal) [µM],TGI (SK-MEL-28 melanoma) [µM],TGI (M14 melanoma) [µM],TGI (UACC-257 melanoma) [µM],TGI (SR leukemia) [µM],TGI (HCT-116 colon) [µM],TGI (MDA-MB-435) [µM]
C=CCN=C1NC(=O)C(CC(=O)Nc2cccc(Cl)c2)S1 (stereo unspecified),> 100,> 100,> 100,> 100,> 100,> 100,> 100,,,
CC1CCCc2c1n[nH]c2CC1CC(=O)NC(=O)C1 (stereo unspecified),> 100,> 100,> 100,> 100,> 100,> 100,> 100,> 100,> 100,
CSc1ccc(Cc2cc(C(C)(C)C)cc(C(C)(C)C)c2O)cc1,29.7,26.6,23.8,26.3,30.8,28.6,28.2,24.7,22.7,
C=CCC1(CN(C)C)CC/C(=C\c2cc(OC)c(OC)c(OC)c2)C1=O (stereo unspecified),> 100,54.1,78.8,37.3,> 100,38.4,58.3,49.1,31.3,
CC1=NC(C)=C(/C(C)=N/NC(=O)c2ccccc2O)C(C)/C1=C(/C)NNC(=O)c1ccccc1O (stereo unspecified),93.6,35.3,23.8,26.2,> 100,> 100,76.6,42.5,48.3,
C/C(=N\NC(=O)c1ccccc1O)c1c(O)cc(C)oc1=O,> 100,> 100,> 100,> 100,> 100,> 100,> 100,,> 100,
COc1ccc(C2=NN(C(C)=O)c3nc4ccccc4nc3O2)cc1,21.7,> 100,> 100,,> 100,,> 100,> 100,> 100,
Oc1ccc(Br)cc1C=NC1CCCCC1,,> 100,> 100,> 100,> 100,> 100,> 100,,48.8,> 100
Cn1c(=O)nc2n(-c3ccc(F)c(F)c3)c3ccccc3nc-2c1=O,75,41.2,,72.5,,45,20.1,,26.5,
NCCCNCc1c2ccccc2c(CNCCCN)c2ccccc12,44,32.5,43.9,35.7,,,45.1,,48.2,
CCCC[C@H](CCc1ccccc1)N(C(=O)OC)N1CCC[C@H]1COC,79.1,61.2,> 100,32.9,38,82.6,36.2,> 100,28.2,
COC(=O)C(/C(=N/N)C(=O)Nc1cc(Cl)ccc1Cl)c1nc2ccc([N+](=O)[O-])cc2[nH]c1=O (stereo unspecified),,> 100,> 100,,> 100,> 100,> 100,> 100,> 100,
O=C(N/C(=C\c1cccc([N+](=O)[O-])c1)c1nc2c3c(ccc2[nH]1)C(=O)c1ccccc1C3=O)c1ccccc1,> 100,,,,85.8,> 100,,> 100,> 100,
Cc1ccc(NC(=O)C(=O)C2C(=O)NC(=O)NC2=O)c(C)c1,> 100,> 100,> 100,> 100,> 100,> 100,> 100,> 100,> 100,
CCCCCCCCCCNC(=S)OC,> 100,> 100,30.8,> 100,> 100,> 100,83.8,55.4,> 100,
NC1=C(O)/C(=N/NS(=O)(=O)c2ccccc2)C(c2ccc3c(c2)OCO3)O1 (stereo unspecified),> 100,> 100,> 100,> 100,> 100,> 100,> 100,> 100,> 100,
COC(=O)CCCCCOS(=O)(=O)c1ccc(C)cc1,> 100,> 100,> 100,> 100,> 100,> 100,> 100,> 100,> 100,
CC(=O)N(N=O)c1ccc(N(N=O)C(C)=O)cc1,> 100,> 100,> 100,> 100,> 100,> 100,,> 100,> 100,
O=C(/C=C/c1ccc(-c2ccccc2)cc1)c1ccccc1,> 100,> 100,> 100,,67.5,> 100,> 100,87.1,30.2,
